Values after ≈ are worked out from the molar mass of the structure shown.
Columns and labels:
Test in all cases: ≥ marks a high value that may be exact or a test limit, other limits are often not marked, values filed in µg/mL are converted to µM
Streptococcus mutans = test system: Streptococcus mutans
[1] = test system: Staphylococcus aureus NCTC 8325
[2] = test system: Escherichia coli ATCC 25922
[3] = test system: Candida albicans ATCC 90028
[4] = test system: Escherichia coli ATCC 25726
[5] = test system: Staphylococcus aureus ATCC 25923
[6] = test system: Staphylococcus epidermidis
Escherichia coli = test system: Escherichia coli
Bacillus cereus = test system: Bacillus cereus
Streptococcus uberis = test system: Streptococcus uberis
Pasteurella multocida = test system: Pasteurella multocida
Leuconostoc lactis = test system: Leuconostoc lactis
Micrococcus luteus = test system: Micrococcus luteus
Staphylococcus aureus = test system: Staphylococcus aureus
Listeria innocua = test system: Listeria innocua

| Compound | MIC (Streptococcus mutans) | MIC [1] | MIC [2] | MIC [3] | MIC [6] | MIC (Escherichia coli) | MIC (Bacillus cereus) | MIC (Streptococcus uberis) | MIC (Pasteurella multocida) | MIC (Leuconostoc lactis) | MIC (Staphylococcus aureus) | MIC (Listeria innocua) | other results |
| --- | --- | --- | --- | --- | --- | --- | --- | --- | --- | --- | --- | --- | --- |
| CC(C)C[C@H](NC(=O)[C@H](Cc1c[nH]c2ccccc12)NC(=O)[C@H](CCCCN)NC(=O)[C@H](CC(C)C)NC(=O)[C@H](Cc1ccccc1)NC(=O)[C@@H](NC(=O)[C@H](CCCCN)NC(=O)[C@@H](N)Cc1ccccc1)[C@@H](C)O)C(=O)N[C@@H](Cc1cnc[nH]1)C(=O)N[C@@H](CCCN=C(N)N)C(=O)N[C@@H](Cc1ccccc1)C(N)=O [FKTFLKWLHRF] | 15.8 µM (≈ 24 µg/mL) | – | – | – | – | – | – | – | – | – | – | – | – |
| CC[C@H](C)[C@H](NC(=O)CNC(=O)[C@H](CO)NC(=O)[C@H](CC(C)C)NC(=O)[C@H](CC(C)C)NC(=O)[C@H](CCCCN)NC(=O)CNC(=O)[C@H](CC(C)C)NC(=O)[C@@H](NC(=O)[C@@H]1CCCN1C(=O)[C@H](CC(C)C)NC(=O)[C@@H](N)Cc1ccccc1)[C@@H](C)CC)C(=O)N[C@@H](CC(C)C)C(N)=O [FLPILGKLLSGIL] | – | 15 µM (≈ 20.7 µg/mL) | > 100 µM | – | – | – | – | – | – | – | – | – | – |
| CC[C@H](C)[C@H](NC(=O)[C@H](CC(C)C)NC(=O)[C@H](CCCCN)NC(=O)[C@H](CCCCN)NC(=O)[C@@H](NC(=O)[C@H](C)NC(=O)[C@H](CCCCN)NC(=O)[C@@H](NC(=O)[C@H](C)NC(=O)[C@H](Cc1cnc[nH]1)NC(=O)[C@@H]1CCCN1C(=O)[C@@H](NC(=O)[C@H](CC(C)C)NC(=O)[C@@H]1CCCN1C(=O)[C@H](CCCCN)NC(=O)[C@@H](NC(=O)[C@H](Cc1ccc(O)cc1)NC(=O)[C@H](CCCCN)NC(=O)[C@H](CCSC)NC(=O)[C@H](Cc1ccccc1)NC(=O)CN)[C@@H](C)CC)[C@@H](C)CC)C(C)C)[C@@H](C)CC)C(=O)O [GFMKYIKPLIPHAVKAIKKLI] | – | ≥ 50 µM | 6.25 µM (≈ 15.1 µg/mL) | ≥ 200 µM | – | – | – | – | – | – | – | – | – |
| CC[C@H](C)[C@H](NC(=O)CN)C(=O)N[C@@H](CC(C)C)C(=O)N[C@@H](CC(=O)O)C(=O)N[C@@H](CO)C(=O)N[C@@H](Cc1ccccc1)C(=O)N[C@@H](CCCCN)C(=O)NCC(=O)N[C@H](C(=O)N[C@@H](C)C(=O)N[C@@H](CCCCN)C(=O)NCC(=O)N[C@H](C(=O)N[C@@H](C)C(=O)N[C@@H](CCCCN)C(=O)N[C@@H](CC(=O)O)C(=O)N[C@@H](CC(C)C)C(=O)N[C@@H](C)C(=O)NCC(=O)N[C@@H](CCCCN)C(=O)N[C@@H](CC(C)C)C(=O)N[C@@H](CC(C)C)C(=O)N[C@@H](CC(=O)O)C(=O)N[C@@H](CCCCN)C(=O)N[C@@H](CC(C)C)C(=O)N[C@@H](CCCCN)C(=O)N[C@H]1CSSC[C@@H](C(=O)O)NC(=O)CNC(=O)[C@H]([C@@H](C)O)NC(=O)[C@H]([C@@H](C)CC)NC(=O)[C@H](CCCCN)NC1=O)C(C)C)C(C)C [GILDSFKGVAKGVAKDLAGKLLDKLKCKITGC] | – | 11 µM (≈ 36.2 µg/mL) | 4 µM (≈ 13.2 µg/mL) | ≥ 150 µM | – | – | – | – | – | – | – | – | MIC [4]: 25 µM (≈ 82.2 µg/mL); MIC [5]: 50 µM (≈ 164 µg/mL) |
| CC[C@H](C)[C@H](NC(=O)CNC(=O)CNC(=O)[C@@H](NC(=O)[C@H](Cc1ccccc1)NC(=O)[C@H](CC(C)C)NC(=O)[C@H](CO)NC(=O)[C@H](CC(C)C)NC(=O)[C@@H](NC(=O)CN)[C@@H](C)CC)[C@@H](C)O)C(=O)N[C@@H](CCCCN)C(=O)N[C@@H](C)C(=O)N[C@@H](CC(C)C)C(=O)NCC(=O)N[C@@H](CCCCN)C(=O)N[C@H](C(=O)N[C@@H](CC(C)C)C(=O)N[C@@H](Cc1ccccc1)C(=O)N[C@@H](CCCCN)C(=O)N[C@@H](CCSC)C(=O)N[C@@H](C)C(=O)NCC(=O)N[C@@H](CCCCN)C(=O)N[C@@H](C)C(=O)NCC(=O)N[C@@H](C)C(=O)N[C@@H](CCC(=O)O)C(=O)N[C@@H](Cc1cnc[nH]1)C(=O)N[C@@H](CC(C)C)C(=O)N[C@@H](C)C(=O)N[C@H]1CSSC[C@@H](C(=O)O)NC(=O)[C@H](CCC(N)=O)NC(=O)[C@H](CC(N)=O)NC(=O)[C@H]([C@@H](C)O)NC(=O)[C@H](C)NC(=O)[C@H](CCCCN)NC1=O)[C@@H](C)O [GILSLFTGGIKALGKTLFKMAGKAGAEHLACKATNQC] | – | 3 µM (≈ 11.2 µg/mL) | 6 µM (≈ 22.5 µg/mL) | ≥ 53 µM | – | – | – | – | – | – | – | – | – |
| CC[C@H](C)[C@H](NC(=O)[C@@H](NC(=O)[C@H](CCCCN)NC(=O)[C@H](C)NC(=O)[C@@H](NC(=O)[C@H](CCCCN)NC(=O)[C@H](CCCCN)NC(=O)[C@@H](NC(=O)[C@@H](NC(=O)[C@H](CCCCN)NC(=O)[C@H](Cc1ccccc1)NC(=O)[C@H](CC(C)C)NC(=O)CN)C(C)C)[C@@H](C)CC)C(C)C)C(C)C)C(=O)N[C@@H](CCCCN)C(=O)N[C@@H](CCCCN)C(=O)N[C@@H](CC(C)C)C(N)=O [GLFKVIKKVAKVIKKL] | – | – | – | – | 6.62 µM (≈ 12 µg/mL) | 55.2 µM (≈ 99.9 µg/mL) | 27.6 µM (≈ 50 µg/mL) | 27.6 µM (≈ 50 µg/mL) | ≥ 55.2 µM | 3.31 µM (≈ 6 µg/mL) | 27.6 µM (≈ 50 µg/mL) | 13.8 µM (≈ 25 µg/mL) | MIC (Micrococcus luteus): 13.8 µM (≈ 25 µg/mL) |
| CC[C@H](C)[C@@H]1NC(=O)[C@H](CCCCN)NC(=O)[C@@H](NC(=O)[C@H](CCCCN)NC(=O)[C@H](CC(C)C)NC(=O)[C@H](CCCCN)NC(=O)[C@H](CC(=O)O)NC(=O)[C@H](CC(C)C)NC(=O)[C@H](CCSC)NC(=O)[C@H](CO)NC(=O)[C@H](C)NC(=O)[C@H](C)NC(=O)[C@@H](NC(=O)[C@@H](NC(=O)[C@H](CCCCN)NC(=O)[C@H](C)NC(=O)[C@@H](NC(=O)CNC(=O)[C@H](CCCCN)NC(=O)[C@@H](NC(=O)[C@@H](NC(=O)[C@H](CC(=O)O)NC(=O)[C@H](CC(C)C)NC(=O)[C@H](CC(C)C)NC(=O)CN)[C@@H](C)O)[C@@H](C)CC)C(C)C)[C@@H](C)O)C(C)C)CSSC[C@@H](C(=O)O)NC(=O)CNC(=O)[C@H](CO)NC1=O [GLLDTIKGVAKTVAASMLDKLKCKISGC] | – | 2 µM (≈ 5.73 µg/mL) | 2 µM (≈ 5.73 µg/mL) | ≥ 35 µM | – | – | – | – | – | – | – | – | – |
| CC[C@H](C)[C@H](NC(=O)[C@@H](NC(=O)[C@H](C)NC(=O)[C@@H](NC(=O)[C@@H](NC(=O)[C@H](Cc1cnc[nH]1)NC(=O)[C@H](C)NC(=O)[C@H](CC(C)C)NC(=O)[C@@H](NC(=O)[C@H](Cc1cnc[nH]1)NC(=O)[C@H](CCCCN)NC(=O)[C@H](C)NC(=O)[C@@H](NC(=O)[C@H](CO)NC(=O)CNC(=O)[C@H](CC(C)C)NC(=O)[C@@H](NC(=O)[C@H](CO)NC(=O)[C@H](CC(C)C)NC(=O)[C@H](CC(C)C)NC(=O)CN)C(C)C)C(C)C)C(C)C)C(C)C)C(C)C)C(C)C)C(=O)N[C@@H](C)C(=O)N[C@@H](CCC(=O)O)C(=O)N[C@@H](Cc1cnc[nH]1)C(=O)N[C@@H](CC(C)C)C(N)=O [GLLSVLGSVAKHVLAHVVAVIAEHL] | – | – | – | – | ≥ 39.5 µM | > 39.5 µM | ≥ 39.5 µM | ≥ 39.5 µM | ≥ 39.5 µM | 9.87 µM (≈ 25 µg/mL) | > 39.5 µM | ≥ 39.5 µM | MIC (Micrococcus luteus): ≥ 39.5 µM |
| CC[C@H](C)[C@H](NC(=O)[C@H](CC(C)C)NC(=O)[C@H](CC(=O)O)NC(=O)CNC(=O)[C@@H](NC(=O)CN)C(C)C)C(=O)N[C@@H](CCCN=C(N)N)C(=O)N[C@@H](CCCCN)C(=O)N[C@@H](C)C(=O)N[C@H](C(=O)N[C@@H](CO)C(=O)N[C@H](C(=O)N[C@H](C(=O)N[C@@H](CCCCN)C(=O)N[C@@H](CC(N)=O)C(=O)N[C@H](C(=O)N[C@H](C(N)=O)C(C)C)[C@@H](C)CC)[C@@H](C)CC)C(C)C)C(C)C [GVGDLIRKAVSVIKNIV] | – | – | – | – | 7.02 µM (≈ 12.5 µg/mL) | > 56.1 µM | 14 µM (≈ 25 µg/mL) | 7.02 µM (≈ 12.5 µg/mL) | ≥ 56.1 µM | 1.68 µM (≈ 3 µg/mL) | 28.1 µM (≈ 50 µg/mL) | 14 µM (≈ 25 µg/mL) | – |
| CC[C@H](C)[C@H](NC(=O)[C@@H](NC(=O)CN)C(C)C)C(=O)N[C@@H](CC(=O)O)C(=O)N[C@@H](C)C(=O)N[C@@H](C)C(=O)N[C@@H](CCCCN)C(=O)N[C@@H](CCCCN)C(=O)N[C@H](C(=O)N[C@H](C(=O)N[C@@H](CC(N)=O)C(=O)N[C@H](C(=O)N[C@@H](CC(C)C)C(=O)N[C@@H](C)C(=O)N[C@@H](CC(N)=O)C(=O)N[C@@H](CC(C)C)C(=O)N[C@@H](Cc1ccccc1)C(N)=O)C(C)C)C(C)C)C(C)C [GVIDAAKKVVNVLANLF] | – | – | – | – | ≥ 56.5 µM | > 56.5 µM | ≥ 56.5 µM | 28.2 µM (≈ 50 µg/mL) | ≥ 56.5 µM | 6.78 µM (≈ 12 µg/mL) | > 56.5 µM | ≥ 56.5 µM | MIC (Micrococcus luteus): ≥ 56.5 µM |
| CC[C@H](C)[C@H](NC(=O)[C@H](Cc1ccccc1)NC(=O)[C@H](CCCCN)NC(=O)[C@@H](NC(=O)[C@H](Cc1ccccc1)NC(=O)[C@H](CCC(N)=O)NC(=O)[C@H](CCCCN)NC(=O)[C@@H](N)CC(C)C)C(C)C)C(=O)N[C@@H](Cc1cnc[nH]1)C(=O)N[C@@H](CCCN=C(N)N)C(=O)N[C@@H](Cc1ccccc1)C(N)=O [LKQFVKFIHRF] | 16.4 µM (≈ 24 µg/mL) | – | – | – | – | – | – | – | – | – | – | – | – |
| CC[C@H](C)[C@H](NC(=O)[C@H](CCCN=C(N)N)NC(=O)[C@H](CCCCN)NC(=O)[C@H](CC(C)C)NC(=O)[C@H](C)NC(=O)[C@@H](N)CCCN=C(N)N)C(=O)N[C@@H](CCCCN)C(=O)N[C@@H](Cc1cnc[nH]1)C(=O)N[C@H](C(=O)N[C@@H](CC(C)C)C(=O)N[C@@H](CCCCN)C(=O)O)C(C)C [RALKRIKHVLK] | ≥ 91.8 µM | – | – | – | – | – | – | – | – | – | – | – | – |
| CC(C)C[C@H](NC(=O)[C@H](Cc1cnc[nH]1)NC(=O)[C@H](CCC(N)=O)NC(=O)[C@H](Cc1ccccc1)NC(=O)[C@H](CCC(=O)O)NC(=O)[C@@H](NC(=O)[C@H](CC(C)C)NC(=O)[C@H](CC(C)C)NC(=O)[C@@H](N)Cc1ccc(O)cc1)[C@@H](C)O)C(=O)N[C@@H](Cc1ccccc1)C(=O)N[C@@H](CCCCN)C(=O)O [YLLTEFQHLFK] | ≥ 86.9 µM | – | – | – | – | – | – | – | – | – | – | – | – |
